In patent US7842703B2, “Substituted benzofused derivatives and their use as vanilloid receptor ligands” (Glenmark Pharmaceuticals S.A., priority 2005, dated 2010):

Experiments:
[1] = biological target: T1, Human TRPV1 expressing CHO cells (Homo sapiens, UniProt Q8NER1); experiment: Screening for TRPV1 antagonist using the 45Calcium uptake assay (inhibition of capsaicin induced cellular uptake of radioactive calcium); format: cell-based; conditions: for inhibition at 1 µM: CHO; for inhibition at 1 µM / % inhibition of ^45Ca uptake at 1 μM: test compound 1 μM, capsaicin 250 nM, relative to maximum ^45Ca uptake induced by capsaicin alone; for IC50: inhibition of capsaicin (250 nM) induced ^45Ca uptake
T1 construct: expressed in transfected cells; host or cells: CHO cells under G-418 selection
T1 sequence (Q8NER1 whole entry): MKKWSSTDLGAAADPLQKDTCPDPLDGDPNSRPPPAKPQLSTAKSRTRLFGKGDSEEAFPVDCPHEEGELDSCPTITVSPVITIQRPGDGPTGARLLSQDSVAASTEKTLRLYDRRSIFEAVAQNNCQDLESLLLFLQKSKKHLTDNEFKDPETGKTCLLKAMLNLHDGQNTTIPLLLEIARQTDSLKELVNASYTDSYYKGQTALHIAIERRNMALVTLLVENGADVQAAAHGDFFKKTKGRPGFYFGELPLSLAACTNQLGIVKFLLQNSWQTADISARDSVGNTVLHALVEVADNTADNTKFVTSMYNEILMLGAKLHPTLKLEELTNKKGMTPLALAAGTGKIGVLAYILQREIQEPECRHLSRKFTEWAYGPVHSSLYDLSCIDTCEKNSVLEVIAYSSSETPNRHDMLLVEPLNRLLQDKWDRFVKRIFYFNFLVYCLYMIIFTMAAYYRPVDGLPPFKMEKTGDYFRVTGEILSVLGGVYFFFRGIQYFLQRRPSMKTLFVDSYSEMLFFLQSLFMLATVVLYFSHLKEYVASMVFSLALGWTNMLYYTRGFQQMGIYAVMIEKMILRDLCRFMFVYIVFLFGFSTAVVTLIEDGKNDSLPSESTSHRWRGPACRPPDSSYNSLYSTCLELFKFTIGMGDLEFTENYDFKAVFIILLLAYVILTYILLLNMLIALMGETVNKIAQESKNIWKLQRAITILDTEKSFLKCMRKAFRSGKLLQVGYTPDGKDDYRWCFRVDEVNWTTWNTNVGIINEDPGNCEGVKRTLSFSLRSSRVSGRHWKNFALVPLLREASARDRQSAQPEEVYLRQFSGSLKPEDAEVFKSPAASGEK

SMILES	melting point [°C]	inhibition at 1 µM [1] [%]	IC50 [1] [nM]	% inhibition of ^45Ca uptake at 1 μM [1] [%]
S=C(Nc1cccc2cnccc12)NC1CC2(CCC2)Oc2ccccc21 (centres unmarked) [Example 80, N′-isoquinolin-5-yl-N-3,3′,4,4′-tetrahydro-2′H-spiro[chromene-2,1′-cyclobutan]-4-ylthiourea(N′-isoquinolin-5-yl-N-3,4-dihydro-2H-spiro[chromene-2,1′-cyclobutan]-4-ylthiourea)]	187 to 188	> 50	49	–
O=C(Nc1cccc2cnccc12)NC1CC2(CCC2)S(=O)(=O)c2ccccc21 (racemic) [Example 82, (±) 1-(1,1-dioxo-3,4-dihydro-spiro[2H-1-benzothiopyran-2,1′cyclobutane]-4-yl)-3-(isoquinolin-5-yl)urea]	–	–	224	>50
CC(=O)n1ncc2cc(NC(=O)NC3CC4(CCC4)Oc4ccccc43)ccc21 (racemic) [Example 19, (±) 1-(3,4-Dihydro-spiro[2H-1-benzopyran-2,1′-cyclobutane]-4-yl)-3-(1-acetyl-1H-indazol-5-yl)urea]	–	< 50	–	–
Cc1cc2c(NC(=O)NC3CC4(CCC4)Oc4ccccc43)cccc2cn1 (racemic) [Example 7, (±) 1-(3,4-Dihydro-spiro[2H-1-benzopyran-2,1′-cyclobutane]-4-yl)-3-(3-methylisoquinolin-5-yl)urea]	–	> 50	183	–
S=C(Nc1cccc2ccncc12)NC1CC2(CCC2)Oc2ccccc21 (centres unmarked) [Example 83, N′-isoquinolin-8-yl-N-3,3′,4,4′-tetrahydro-2′H-spiro[chromene-2,1′-cyclobutan]-4-ylthiourea (N′-isoquinolin-8-yl-N-3,4-dihydro-2H-spiro[chromene-2,1′-cyclobutan]-4-ylthiourea)]	–	–	–	<50
O=C(Nc1cccc2cnccc12)NC1CC2(CCC2)Oc2c(O)cccc21 (racemic) [Example 61, (±) 1-(3,4-Dihydro-8-hydroxy-spiro[2H-1-benzopyran-2,1′-cyclobutane]-4-yl)-3-(isoquinolin-5-yl)urea]	246 to 247	> 50	775	–
O=C(NCc1ccco1)NC1CC2(CCC2)Oc2ccccc21 (racemic) [Example 25, (±) 1-(3,4-Dihydro-spiro[2H-1-benzopyran-2,1′-cyclobutan]-4-yl)-3-(2-furylmethyl)urea]	–	< 50	–	–
COc1ccc2nc(NC(=O)NC3CC4(CCC4)Oc4ccccc43)sc2c1 (racemic) [Example 14, (±) 1-(3,4-Dihydro-spiro[2H-1-benzopyran-2,1′-cyclobutane]-4-yl)-3-(6-methoxy-1,3-benzothiazol-2-yl)urea]	–	< 50	–	–
O=C(Nc1ncc(-c2ccc(Br)cc2)s1)NC1CC2(CCC2)Oc2ccccc21 (racemic) [Example 17, (±) 1-(3,4-Dihydro-spiro[2H-1-benzopyran-2,1′-cyclobutane]-4-yl)-3-[5-(4-bromophenyl)-1,3-thiazol-2-yl])urea]	–	–	–	<50
O=C(Nc1cccc2cnccc12)NC1CC2(CCC2)Oc2ccc(Br)cc21 (racemic) [Example 65, (±) 1-(6-Bromo-3,4-dihydro-spiro[2H-1-benzopyran-2,1′-cyclobutane]-4-yl)-3-(isoquinolin-5-yl)urea]	–	> 50	404	–
O=C(Nc1cccc2cnccc12)NC1CC2(CCC2)Oc2c(F)cc(F)cc21 (centres unmarked) [Example 48, 1-(6,8-Difluoro-3,4-dihydro-spiro[2H-1-benzopyran-2,1′-cyclobutane]-4-yl)-3-(isoquinolin-5-yl)urea]	–	> 50	16.1	–
O=C(NC1CC2(CCC2)Oc2ccccc21)N1CCCCC1 (centres unmarked) [Example 39, N-3,4-dihydrospiro[chromene-2,1′-cyclobutan]-4-ylpiperidine-1-carboxamide]	–	0	–	–
